From publication PMC10724190, “Phytochemical screening and biological evaluation of Greek sage (Salvia fruticosa Mill.) extracts” (Scientific Reports, 2023)

Key:
[1] = target: microbial XO (xanthine oxidase); assay: Xanthine oxidase inhibitory activity, HPLC-PAD monitoring of uric acid formation; assay type: biochemical; details: for IC50, mass of standard or dry weight of sample capable of reducing XO activity to 50%: 15 min preincubation, 60 min at 25 °C, xanthine substrate; for IC50: read-out: IC50 of XO inhibition as concentration
Description: The transformation of xanthine (substrate) to uric acid (product) by XO with or without the presence of tested samples was monitored with the use of HPLC-PAD at 285 nm (Fig. 3a). The enzyme activity was calculated as the percentage of the uric acid peak area formed in the presence of the tested sample compared to the control without the addition of the sample (Fig. 3b). The inhibition of the XO enzyme was expressed as an IC50 value, meaning the mass of standard or dry weight of sample (μg) capable of reducing enzyme activity to 50% (Fig. 3b,c).
The ability of – caffeic acid, carnosic acid, carnosol, rosmarinic acid, salvianolic acid B and scutellarin, as well as S. fruticosa extracts – to inhibit XO was determined. The stock solutions of xanthine (substrate) and uric acid (product) (1.5 mM) were prepared in an NaOH aqueous solution (1 M). The working solutions of these compounds (150 μM) were prepared by dilution of stock solutions with a phosphate buffer (10 mM, pH 7.7). An enzyme solution with an activity of approximately 0.5 U/mL was prepared in the same phosphate buffer. The same buffer was also used to dilute stock solutions of phytochemical standards and S. fruticosa extracts. The diluted samples with different concentrations of standard or plant extract (85 µL) were mixed with an XO solution (30 µL) and preincubated for 15 min at 25 °C, followed by the addition of 60 µL of a 150 µM xanthine solution (substrate). The mixtures were incubated for 60 min at 25 °C, then 25 µL of HCl solution (1 M) was added to stop the enzymatic reaction.
The samples were analyzed using an HPLC-PAD system (1200 series, Agilent Technologies, Wilmington, DE, USA) equipped with a Kinetex® column (150 × 4.6 mm, 5 µm, Phenomenex). A two-component mobile phase was used, in which component A was water acidified with formic acid (1%) and component B was methanol. The mobile phase was pumped at flow rate of 1 mL/min according to the gradient elution program: 0 min – 100% A, 8 min – 18% B, 12 min – 80% B, 18 min – 100% B and finally, the initial conditions were held for 5 min as a re-equilibration step. The injection volume was 30 μL. The inhibition of the XO enzyme was expressed as an IC50 value, meaning the mass of standard or dry weight of the sample (μg) that could reduce enzyme activity to 50%. Enzyme activity was calculated as the percentage of the uric acid peak area (RT 3.1 min) that was formed in the presence of extracts compared to the control sample without the addition of extracts.

[2] = Total antioxidant activity, ABTS, DPPH and F–C tests taken together; details: reference antioxidant trolox
Description: The presented study compared the results of the three most popular spectrophotometric tests using ABTS, DPPH and Folin–Ciocalteu (F–C) reagents. ABTS and DPPH assays are used widely to determine free radical scavenging activity of extracts, as are pure compounds. For S. fruticosa extracts, the calculated antioxidant activity describes the number of ABTS or DPPH molecules reduced by antioxidants derived from 1 g of dried material after 10 min of reaction. These values were calculated in the linear range of the method and expressed as the slope of the line describing the relationship between the number of reduced millimoles of oxidants and various amounts of tested samples – as grams of dry matter in reaction mixtures (Fig. 2b).
The study also includes the method with the Folin–Ciocalteu reagent. It consists in the transfer of electrons in an alkaline environment from compounds with active hydroxyl groups to phosphomolybdic phosphotungstic acid complexes. The reducing capacity in this case was expressed as the number of millimoles of gallic acid equivalents, that formed blue complex and were derived from 1 g of dry matter of the plant. […]
The antioxidant activity of – caffeic acid, carnosic acid, carnosol, rosmarinic acid, salvianolic acid B, scutellarin and S. fruticosa extracts – was determined by spectrophotometric tests using ABTS, DPPH and Folin–Ciocalteu (F–C) reagents. […] For tests with radicals, the data were used to generate a plot of linear dependence between the different content of tested standards or S. fruticosa samples calculated as gram of dry weight present in the reaction mixtures and the number of scavenged millimoles of ABTS or DPPH radical. […] For the F–C test the results were calculated using the calibration curve of gallic acid. The antioxidant activity of the tested samples was expressed as a slope of the line that represents the relationship between the mass of standards or plant material [g] and amount of gallic acid equivalents [mmol] present in reaction mixtures after 60 min.

Row | Compound | IC50, mass of standard or dry weight of sample capable of reducing XO activity to 50% [1] | IC50 [1] | Antioxidant activity compared with trolox [2]
1 | O=C(O)/C=C/c1ccc(O)c(O)c1 [Caffeic acid] | 0.1 µg | 2.8 µM | more efficient than trolox
2 | Oc1ncnc2[nH]ncc12 [allopurinol] | 0.15 µg | 5.5 µM | –
3 | O=C(/C=C/c1ccc(O)c(O)c1)O[C@H](Cc1ccc(O)c(O)c1)C(=O)O [rosmarinic acid, Rosmarinic acid] | – | 43.8 µM | more efficient than trolox
4 | Salvianolic acid B | – | – | more efficient than trolox
